Test results published in PubChem BioAssay AID248 (DTP/NCI, 2004).
Inconclusive results and toxic doses are left out. Cut-off read from the data, not from the text of the source: active = T/C of 150% or more; inactive = T/C below 125%.

System: L1210 leukemia ip in BDF1 mice, survival T/C
Assay: NCI In Vivo Anticancer Drug Screen. Data for tumor model L1210 Leukemia (intraperitoneal) in B6D2F1 (BDF1) mice
Settings: endpoint: mean survival time, higher = longer survival
Outline: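 Read-out is survival time, reported as the treated-group measurement over the vehicle-control measurement.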

[1] = dose: 25.0 mg/kg/injection, schedule: Q01DX009 (ip), vehicle: Klucel (hydroxypropylcellulose) (HPC)
[2] = dose: 50.0 mg/kg/injection, schedule: Q01DX009 (ip), vehicle: Klucel (hydroxypropylcellulose) (HPC)
[3] = dose: 100.0 mg/kg/injection, schedule: Q01DX009 (ip), vehicle: Klucel (hydroxypropylcellulose) (HPC)
[4] = dose: 100.0 mg/kg/injection, schedule: Q01DX001 (ip), vehicle: saline
[5] = dose: 200.0 mg/kg/injection, schedule: Q01DX001 (ip), vehicle: saline
[6] = dose: 50.0 mg/kg/injection, schedule: Q01DX009 (ip), vehicle: saline
[7] = dose: 100.0 mg/kg/injection, schedule: Q04DX003 (ip), vehicle: saline
[8] = dose: 200.0 mg/kg/injection, schedule: Q04DX003 (ip), vehicle: saline
[9] = dose: 400.0 mg/kg/injection, schedule: Q04DX003 (ip), vehicle: saline
[10] = dose: 100.0 mg/kg/injection, schedule: Q04DX003 (ip), vehicle: Klucel (hydroxypropylcellulose) (HPC)
[11] = dose: 200.0 mg/kg/injection, schedule: Q04DX003 (ip), vehicle: Klucel (hydroxypropylcellulose) (HPC)
[12] = dose: 400.0 mg/kg/injection, schedule: Q04DX003 (ip), vehicle: Klucel (hydroxypropylcellulose) (HPC)
[13] = dose: 100.0 mg/kg/injection, schedule: Q01DX009 (ip), vehicle: saline
[14] = dose: 200.0 mg/kg/injection, schedule: Q01DX009 (ip), vehicle: saline
[15] = dose: 75.0 mg/kg/injection, schedule: Q01DX001 (ip), vehicle: other
[16] = dose: 150.0 mg/kg/injection, schedule: Q01DX001 (ip), vehicle: other
[17] = dose: 100.0 mg/kg/injection, schedule: Q04DX002 (ip), vehicle: saline with Tween-80
[18] = dose: 200.0 mg/kg/injection, schedule: Q04DX002 (ip), vehicle: saline with Tween-80
[19] = dose: 400.0 mg/kg/injection, schedule: Q04DX002 (ip), vehicle: saline with Tween-80
[20] = dose: 100.0 mg/kg/injection, schedule: Q04DX002 (ip), vehicle: gum acacia
[21] = dose: 200.0 mg/kg/injection, schedule: Q04DX002 (ip), vehicle: gum acacia
[22] = dose: 400.0 mg/kg/injection, schedule: Q04DX002 (ip), vehicle: gum acacia

Measured: T/C

CCN(CC)CCN(C(=S)Nc1ccccc1)c1ccccc1
inactive: [1] 103 % of control | [2] 102 % of control | [3] 96 % of control

CCC1(C)N=C(N)Nc2nc3ccccc3n21 (centres undefined)
inactive: [4] 96 % of control | [5] 94 % of control

CN(C)C=Nc1ccc(Cl)c(Cl)c1
inactive: dose: 12.5 mg/kg/injection, schedule: Q01DX009 (ip), vehicle: saline 90 % of control | dose: 25.0 mg/kg/injection, schedule: Q01DX009 (ip), vehicle: saline 90 % of control | [6] 90 % of control | dose: 100.0 mg/kg/injection, schedule: Q04DX003 (ip), vehicle: saline with Tween-80 97 % of control

O=C(O)CCC(=O)Nc1cccc(Oc2ccc([N+](=O)[O-])cc2[N+](=O)[O-])c1
inactive: [7] 106 % of control | [8] 98 % of control | [9] 97 % of control

CN(C)CCC1(CCN(C)C)C(=O)CCc2ccccc21
inactive: dose: 100.0 mg/kg/injection, schedule: Q01DX001 (ip), vehicle: other 97 % of control | dose: 200.0 mg/kg/injection, schedule: Q01DX001 (ip), vehicle: other 103 % of control | dose: 400.0 mg/kg/injection, schedule: Q01DX001 (ip), vehicle: other 103 % of control

CCOC(=O)Nc1nc(Cl)c(Cl)nc1Cl
inactive: dose: 25.0 mg/kg/injection, schedule: Q01DX009 (ip), vehicle: water 93 % of control | dose: 50.0 mg/kg/injection, schedule: Q01DX009 (ip), vehicle: water 102 % of control | dose: 100.0 mg/kg/injection, schedule: Q01DX009 (ip), vehicle: water 98 % of control | dose: 200.0 mg/kg/injection, schedule: Q01DX009 (ip), vehicle: water 91 % of control | dose: 400.0 mg/kg/injection, schedule: Q01DX009 (ip), vehicle: water 96 % of control

C[Si](C)(C)Oc1ccccc1[Si](C)(C)c1ccccc1
inactive: [10] 101 % of control | [11] 98 % of control | [12] 102 % of control

CCN(CC)Cc1c(C)[nH]c2ccc(N(C)C)cc2c1=O
inactive: [6] 101 % of control | [13] 106 % of control | [7] 115 % of control | [14] 92 % of control | [8] 109 % of control

CCOc1ccc(N)c([N+](=O)[O-])c1
inactive: [4] 100 % of control | [5] 107 % of control | dose: 400.0 mg/kg/injection, schedule: Q01DX001 (ip), vehicle: saline 105 % of control

Cc1ccc(C)c(NC(=O)Nc2ccccc2)c1
inactive: [3] 100 % of control | [10] 98 % of control | dose: 200.0 mg/kg/injection, schedule: Q01DX009 (ip), vehicle: Klucel (hydroxypropylcellulose) (HPC) 94 % of control | [11] 96 % of control | dose: 400.0 mg/kg/injection, schedule: Q01DX009 (ip), vehicle: Klucel (hydroxypropylcellulose) (HPC) 98 % of control | [12] 91 % of control

O=C(Nc1cccc(C(F)(F)F)c1)c1ccc(Cl)c(Cl)c1
inactive: dose: 100.0 mg/kg/injection, schedule: Q01DX009 (ip), vehicle: gum acacia 108 % of control | dose: 100.0 mg/kg/injection, schedule: Q04DX003 (ip), vehicle: gum acacia 100 % of control | dose: 200.0 mg/kg/injection, schedule: Q04DX003 (ip), vehicle: gum acacia 100 % of control | dose: 400.0 mg/kg/injection, schedule: Q01DX009 (ip), vehicle: gum acacia 96 % of control | dose: 400.0 mg/kg/injection, schedule: Q04DX003 (ip), vehicle: gum acacia 95 % of control

NCCOc1ccc([N+](=O)[O-])cc1Cl
inactive: [6] 93 % of control | [15] 96 % of control | [13] 98 % of control | [7] 121 % of control | [16] 100 % of control | [14] 96 % of control | [8] 103 % of control | dose: 300.0 mg/kg/injection, schedule: Q01DX001 (ip), vehicle: other 96 % of control

Nc1ccc(-c2ccc(NC(=O)C(=O)O)cc2)cc1
inactive: dose: 12.5 mg/kg/injection, schedule: Q04DX003 (ip), vehicle: Klucel (hydroxypropylcellulose) (HPC) 101 % of control | [1] 95 % of control | dose: 25.0 mg/kg/injection, schedule: Q04DX003 (ip), vehicle: Klucel (hydroxypropylcellulose) (HPC) 97 % of control | [2] 97 % of control | dose: 50.0 mg/kg/injection, schedule: Q04DX003 (ip), vehicle: Klucel (hydroxypropylcellulose) (HPC) 111 % of control | [3] 100 % of control | [10] 111 % of control

O=C1C2C3c4ccccc4C(C2C(=O)N1c1ccc(Cl)cc1)[n+]1ccccc13 (centres undefined)
inactive: [15] 96 % of control | [16] 103 % of control

CC12C(=O)OC(=O)C1C1C=CC2C1 (centres undefined)
inactive: dose: 100.0 mg/kg/injection, schedule: Q04DX002 (ip), vehicle: Klucel (hydroxypropylcellulose) (HPC) 102 % of control | dose: 100.0 mg/kg/injection, schedule: Q04DX003 (ip), vehicle: other 98 % of control | dose: 200.0 mg/kg/injection, schedule: Q04DX002 (ip), vehicle: Klucel (hydroxypropylcellulose) (HPC) 102 % of control | dose: 200.0 mg/kg/injection, schedule: Q04DX003 (ip), vehicle: other 102 % of control

COc1ccc2c(c1)c(Cl)c1ccc(Cl)cc1[n+]2[O-]
inactive: [17] 91 % of control | [18] 95 % of control | [19] 107 % of control

O=C(COc1ccc(Cl)cc1Cl)Nc1ccc(Br)cc1
inactive: [20] 103 % of control | [21] 92 % of control | [22] 89 % of control

CC12CCCC(C(C#N)C(N)=O)(C1)NC(=O)C2C#N (centres undefined)
inactive: [4] 107 % of control | [5] 96 % of control

NNc1nnnc2ccccc12
inactive: dose: 20.0 mg/kg/injection, schedule: Q01DX001 (ip), vehicle: Klucel (hydroxypropylcellulose) (HPC) 108 % of control

CC(=O)Nc1ccc([N+](=O)[O-])cc1
inactive: [20] 98 % of control | [21] 88 % of control | [22] 107 % of control

CCOC(=O)c1c(N)ssc1=S
inactive: [13] 100 % of control | [7] 102 % of control | [14] 105 % of control | [8] 105 % of control | dose: 400.0 mg/kg/injection, schedule: Q01DX009 (ip), vehicle: saline 105 % of control | [9] 107 % of control

COc1ccc(OC)c(NC(=O)Oc2cc(C)c(Cl)c(C)c2)c1
inactive: [17] 93 % of control | [18] 96 % of control | [19] 101 % of control

CC(C)(SCc1ccccc1)C(NC(=O)OCc1ccccc1)C(=O)O (centres undefined)
inactive: dose: 12.5 mg/kg/injection, schedule: Q01DX009 (ip), vehicle: DMSO 92 % of control | dose: 25.0 mg/kg/injection, schedule: Q01DX009 (ip), vehicle: DMSO 92 % of control | dose: 50.0 mg/kg/injection, schedule: Q01DX009 (ip), vehicle: DMSO 88 % of control | dose: 100.0 mg/kg/injection, schedule: Q04DX002 (ip), vehicle: DMSO 95 % of control | dose: 200.0 mg/kg/injection, schedule: Q04DX002 (ip), vehicle: DMSO 97 % of control
